The values that follow come from US20140256693A1, “PYRROLO [1,2-C] IMIDAZOLE DERIVATIVES FOR USE IN THE PROPHYLAXIS OR TREATMENT OF CANCER WHICH IS REFRACTORY TO KNOWN CANCER THERAPIES” (TAKEDA PHARMACEUTICAL COMPANY LIMITED, priority 2007, published 2014).

This assay has as its system castrated male cynomolguses. The assay can be described thus: Serum DHEA and testosterone in castrated male cynomolguses after repeated oral administration (RIA). Format: in vivo. The settings on record: castrated male cynomolgus, 7.5 or 15 mg/kg/dose oral, twice a day for one week. The method, then:
(+)-6-(7-Hydroxy-6,7-dihydro-5H-pyrrolo[1,2-c]imidazol-7-yl)-N-methyl-2-naphthamide was used as a test compound belonging to compound (I′). For oral administration, the test compound was weighed and placed in a mortar, 0.5% methylcellulose solution was added thereto, and the mixture was sufficiently admixed with a pestle to give a suspension.
6 to 12-year-old castrated male cynomolguses were divided into two groups (7.5 mg/kg/time test compound administration group and 15 mg/kg/time test compound administration group) each including 3 cynomolguses such that blood DHEA concentration would be impartial. The test compound was repeatedly administered orally twice a day (bid) for one week. Blood samples were collected twice a day from 3 days prior to the administration through the final day of administration. Vehicle (0.5% methylcellulose) was administered about one month after the completion of administration, and blood samples were collected according to the same schedule. Serum DHEA and serum testosterone concentrations were measured by RIA (radioimmunoassay).
The serum DHEA concentrations of the test compound administration group are shown in FIG. 1, and the serum DHEA concentrations of the vehicle administration group where vehicle was administered about a month after completion of the administration of the test compound are shown in FIG. 2. […]

On to `CNC(=O)c1ccc2cc(C3(O)CCn4cncc43)ccc2c1` (single isomer, unassigned; (+)) [test compound, (+)-6-(7-Hydroxy-6,7-dihydro-5H-pyrrolo[1,2-c]imidazol-7-yl)-N-methyl-2-naphthamide], for which, under “FIG. 1, maintained at low levels during the administration period”, the “serum DHEA concentration” value is “decreased”. The serum testosterone concentration entry (FIG. 3, maintained at low levels during the administration period) was “decreased”.
